Legend:
QR2 mRNA [1] = experiment: QR2 mRNA expression in primary cortical cells treated with QR2 shRNA lentiviral clones; type: cell-based; settings: rat primary cortical cells, week long incubation, compared to scrambled virus; FIG. 8
Experimental: (§1) mRNA quantification—We used the RNeasy lipid tissue kit (QIAGEN) according to the manufacturer's instructions in order to extract the RNA. We then evaluated RNA concentration and purity using a nanodrop spectrophotometer.
(§2) The cDNA synthesis was accomplished using the High Capacity Reverse Transcription Kit (ABI) according to the manufacturer's instructions. The reaction was carried out in a total volume of 20 μl on 1000 ng of RNA.
(§3) The qPCR reaction was performed in a total volume of 10 μl on 10 ng of cDNA. We used the following TaqMan assays (Applied Biosystems): QR2 (Rn01434728_g1), NQO1 (RN00566528_m1), glyceraldehyde-3-phosphate dehydrogenase, GAPDH (Rn01775763_g1). The reactions were carried out per the manufacturer's instructions.
(§4) Real Time-PCR analysis was performed using the PCR System STEP-ONE plus (Applied Biosystems). Relative mRNA levels were calculated using the ΔΔCt method using GAPDH as a normalizing gene: ΔΔCt=[(Ct(gene of interest)−Ct(GAPDH)) of the untreated group]−[(Ct(gene of interest)−Ct(GAPDH)) of the treated group]. The fold increase is then calculated as such: fold increase=2−ΔΔCt. […]
For this purpose, we evaluated three different clones (Sigma-Aldrich, Israel). […] We then evaluated QR2 mRNA expression.

rats [2] = experiment: Novel taste (saccharin) choice test after injection of QR2 shRNA virus into the IC; type: in vivo, rat; settings: lentivirus injected into IC; choice test three days after saccharin; mean+/-SEM, n=12
Experimental: Micro-infusion—Rats were anesthetized with Equithesin (0.45 ml/100 g) (2.12% w/v MgSO4, 10% v/v ethanol, 39.1% v/v 1,2,-propranolol, 0.98% w/v sodium pentobarbital, and 4.2% w/v chloral hydrate), restrained in a stereotactic apparatus (Stoelting, USA) and injected bilaterally with a 10 mm 28 gauge injection cannula aimed at the rat gustatory cortex (anteroposterior, +1.2 mm relative to bregma; lateral, ±5.5 mm; ventral, −5.5 mm; (Paxinos and Watson, 1986). The injection cannula was connected via PE20 tubing to a Hamilton microsyringe driven by a micro-infusion pump (CMA/100; Carnegie Medicin). […] The injection cannula was left in position before withdrawal for an additional 1 min to minimize dragging of the injected liquid along the injection tract. To avoid lateral bias, animals were injected interchangeably between both sides. Following the microsurgery, animals were injected i.m. with antibiotic and were allowed to recuperate for one week. […]
Preference index—the preference index was calculated by the following equation [(total novel taste liquid ingested/(novel taste liquid ingested+water ingested))*100]. […]

rats [3] = experiment: Memory extinction following a CTA paradigm in QR2 shRNA injected animals; type: in vivo, rat; settings: repeated measure ANOVA; FIG. 11
Experimental: Aversion index—the aversion index is calculated by the following equation [(total water ingested/(novel taste liquid ingested+water ingested))*100].
Conditioned Taste Aversion (CTA)—Two groups of rats were deprived from water for a period of 24 hours. This was followed by 3 days of restriction were the rats received two pipettes each filled with 10 ml of water for 20 minutes each day. On the fourth day both groups received two pipettes each filled with 10 ml of an unfamiliar tasting liquid, either saccharine (0.1% w/v) or NaCl (0.3% w/v), for 20 minutes. Forty minutes following the exposure to the novel liquid the rats in the experimental group received an injection of LiCl (prepared in double distilled water (DDW)) (2% bodyweight, intraperitoneally (i.p.)) and those in the control received an injection of physiological saline (2% bodyweight, i.p.).

QR2 mRNA [4] = experiment: QR2 mRNA expression in the IC after stereotactic injection of QR2 shRNA virus (RT-PCR); type: in vivo, rat; settings: compared to scrambled virus group, n=12, p<0.005; FIG. 12
Experimental: Tissue extraction—Following the learning protocol the insular cortex was removed by hand. The insular cortex was identified through cortical landmarks, the rhinal fissure and the medial cerebral artery. The insular cortex was immediately placed in liquid nitrogen and then stored at −80° C.
as §1, §2, §3, §4

mice [5] = experiment: Delay fear conditioning test after QR2 shRNA lentivirus injection into the CA1 region of hippocampus; type: in vivo, mouse
Experimental: M&M—A delay fear conditioning test was performed on two groups of mice (10 mice per group) injected with Lentivirus encoding the QR2 shRNA or a scrambled sequence one week before the experiment. The Lentivirus was injected in to the CA1 region of hippocampus. The conditioning apparatus used was four New Biotechnology Ltd. (NBT) chambers, (Panlab Harvard Apparatus, Barcelona, Spain) consisting of a Plexiglas walls (25×25×25 cm) with a 16 stainless steel rods grid floor, a dim light and speakers. The apparatus was located inside a sound proof larger, insulated plastic cabinet that excluded outside light and noise. On day 1 (training), the mice were transported to the nearby testing room and set next to the conditioning chambers for a 5 min resting period with lights off. Each chamber was wiped with 30% ethanol solution before training and each mouse was placed in the chamber individually during training. For delay fear conditioning, mice were pre-exposed to an experimental chamber for 5 min, and received 5 trials in which 4000 Hz, tone, applied for 10 seconds at 76 dB (conditioned stimuli; CS) co-terminated by a 0.36 mA foot shock applied for 2 second (unconditioned stimuli; US), separated by 3.5 min inter-trial interval (ITI). After the last training trial, the mice were left in the conditioning chamber for another 120 s and were then placed back in their home cages.
On day 2 and day 8 (1 week later) (context fear test), the mice were returned to the same experimental chamber with the same contextual configuration for 10 min. Freezing behavior was recorded. On the third day and day 9 (1 week later) (tone fear test), the mice were set next to the conditioning chambers for a 5 min resting period with lights on, then mice were placed into the same experimental chamber, with novel contextual configuration (no light, and a smooth black Plexiglas floor), for 5 min during which freezing was record under infra-red light source. […] The animals' behavior was recorded, and the data analyzed by Freeze Frame 3.0 software (Coulbourn Instruments, PA, USA). […]

mice [6] = experiment: Morris Water Maze after QR2 shRNA injection into hippocampus (CA1 region); type: in vivo, mouse
Experimental: M&M—Spatial reference memory in the Morris Water Maze (MWM) was determined as previously described (Vorhees, Williams 2006). The pool was 1.2 m in diameter and the water was rendered opaque by the addition of white tempera. Water temperature was kept at 22° C. The platform was 8 cm in diameter. All behavioral tests and trials were performed at the same time of day (±1 hr) during the animal's light phase. The mice were acclimatized in testing room for 15 min. Mice were trained in four trials per day (trial length 60 s with 30 s ITI), over 4 consecutive days. If an animal fails to locate the platform within training time, it is usually picked up and placed on the platform for 15 s. For probe trials, the platform was removed from the maze and the animals were allowed to search for 60 s. Learning was evaluated by monitoring escape latencies to a hidden (submerged) platform and time spent in each quadrant of the maze (quadrant occupancy) with an automated video tracking system, and the data analyzed by EthoVision XT9 (Noldus Information Technology, USA). Swimming speed was similar in QR2 shRNA and scrambled injected animals (data not shown).

Which “QR2 mRNA expression” value (QR2 mRNA [1]) does the source give for “v394: shRNA construct directed against mouse QR2 (Sigma-Aldrich clone), subcloned into lentiviral plasmid pFUGW; chosen clone used for the injected virus (CCGGCAGUCACUGUGUCUGAUUUAUCUCGAGAUAAAUCAGACACAGUGACUGUUUUUG)” here?
Its value is “slightly more effective”.

What about the “Preference index (PI)” value (rats [2]) of the same substance?
Its value is 76.3+/−2.14.

And the “Memory extinction (aversion index over time)” value (rats [3])?
Its value is “significant extinction on Day 3”.

What about the “QR2 mRNA expression in the IC” value (QR2 mRNA [4]) of the same substance?
Its value is “significantly lower QR2 mRNA expression”.

And the “Long term memory (response to conditioned context and tone)” value (mice [5]; 1 week later, vs scrambled sequence, context p=0.03, tone p=0.031)?
Its value is “enhanced long term memory”.

What about the “Freezing response, context test” value (mice [5]; day 2, vs scrambled sequence, n=10, p=0.031) of the same substance?
Its value is “froze significantly frequently”.

What about the “Freezing response, tone test” value (mice [5]; day 3, vs scrambled sequence, n=10, p=0.003) of the same substance?
The value was “froze significantly frequently”.

What about the “Quadrant occupancy (time in target quadrant), probe test” value (mice [6]; after completion of training, vs scrambled injected mice, p=0.031) of the same substance?
The value was “preferential quadrant occupancy”.

And the “Escape latency to hidden platform” value (mice [6]; day 4 of training, vs scrambled injected mice, p=0.036)?
Its value is “shorter latency”.

And the Swimming speed (mice [6]; vs scrambled injected animals, data not shown)?
The Swimming speed was “similar”.

And the “Crossings of the platform location, probe test” value (mice [6]; vs scrambled injected mice, p=0.029)?
The value was “more times”.

— patent US10676747B2, “Methods for improving cognitive function via modulation of quinone reductase 2” (Carmel-Haifa University Economic Corp. Ltd., priority 2014, dated 2020)
